Results: patent publication US5610185A, “Method for the treatment of hyperproliferative epithelial skin diseases by topical application of hydroxylated aromatic protein cross-linking compounds” (The United States of America as represented by the …, priority 1995, dated 1997)
“Also recorded” adds a separate entry of the source.

What was measured:
[1] = system: SP-1 benign tumor mouse keratinocytes; test: Cornified envelope (cross-linked protein) assay, SP-1 cells; assay type: cell-based
From the text: (§1) FIG. 1. MC Increases Cross-linked Protein in Epidermal Cell Lines. Black squares represent HPV 18 human epithelial keratinocytes; black circles represent SV 40 infected human keratinocytes; black triangles represent (SQCC-Y1) cells; white triangles represent (SP-1) benign tumor mouse keratinocytes; white squares represent (308 cells) benign mouse keratinocytes; and white circles represent (I-7) cells mouse squamous cell carcinoma.
FIGS. 2A and 2B, 2C and 2D show color phase contrast photographs. SP-1 cells were treated with vehicle (A and C) or 250 μM MC (B and D) for 48 hours. In A and B phase contrast photomicrographs were taken.
Primary mouse keratinocytes were isolated from BALB/c newborn mouse skin. […]
(§2) Cells were incubated with MC for 48 hours, then cross-linked protein was isolated and measured as described in Example 1.
(§3) The assay measures insoluble cross-linked protein envelopes as described (Hough-Monroe et al. Analytical biochem., 199, 25-28, 1991), with modifications as follows. […] Absorbance of eluate was measured on a Titertek plate reader at 600 nm.

[2] = system: 308 cells (benign neoplastic mouse keratinocytes); test: Cornified envelope (cross-linked protein) assay, 308 cells; assay type: cell-based; settings: 308 (papilloma), 48 h, 0.1-1 mM
From the text: as §1
(§4) Primary mouse keratinocytes were isolated from BALB/c newborn mouse skin. Primary keratinocytes, the benign neoplastic keratinocyte cell lines 308 and SP-1 (Strickland et al, Cancer Res., 48, 165-169, 1988) and the mouse squamous cell carcinoma line 1-7 (Greenhalgh et al., Proc. Natl. Acad. Sci., 87, 643-647, 1990) were grown in Eagle's minimal essential medium with 8% fetal calf serum (FCS) (chelexed) and penicillin 20 iu/ml, streptomycin 20 ug/ml (P/S). Unless otherwise indicated, the Ca^2+ concentration in medium was adjusted to 0.05 mM (Hennings et al., Cells, 19, 245-254, 1980). […]
as §2, §3

[3] = system: I-7 mouse squamous cell carcinoma cells; test: Cornified envelope (cross-linked protein) assay, I-7 cells; assay type: cell-based; settings: I-7 (carcinoma), 48 h, 0.1-1 mM
From the text: as §1, §4, §2, §3

[4] = system: HPV 18 infected human keratinocytes; test: Cornified envelope (cross-linked protein) assay, HPV 18 infected keratinocytes; assay type: cell-based; settings: 48 h, 0.1-1 mM
From the text: as §1, §4, §2, §3

[5] = system: primary mouse keratinocytes; test: Cornified envelope (cross-linked protein) assay, primary mouse keratinocytes; assay type: cell-based
Protocol: FIGS. 3A and 3B. A: Time course for cornification of primary mouse keratinocytes in response to MC. Boxes represent […] Ca^2+, triangles represent 100 μM MC, 1.4 mM Ca^2+, and solid circles represent 1 mM MC, 1.4 mM Ca^2+. […] Cells were incubated in medium with 1.4 mM Ca^2+ and MC for 4 hours, then were incubated with MTT (0.5 mg/ml in medium) for a further 4 hours before determination of formazan production.
Primary mouse keratinocytes were isolated from BALB/c newborn mouse skin. Primary keratinocytes, the benign neoplastic keratinocyte cell lines 308 and SP-1 (Strickland et al, Cancer Res., 48, 165-169, 1988) and the mouse squamous cell carcinoma line 1-7 (Greenhalgh et al., Proc. Natl. Acad. Sci., 87, 643-647, 1990) were grown in Eagle's minimal essential medium with 8% fetal calf serum (FCS) (chelexed) and penicillin 20 iu/ml, streptomycin 20 ug/ml (P/S). Unless otherwise indicated, the Ca^2+ concentration in medium was adjusted to 0.05 mM (Hennings et al., Cells, 19, 245-254, 1980). A431 human epidermoid carcinoma cells were obtained from ATCC, Rockville, Md., and were routinely passaged in DMEM with 10% FCS, P/S, glutamine (2 mM) and pyruvate (1 mM). SQCC-Y1 human squamous carcinoma cells and non-tumorigenic HPV 18 and SV 40 infected human keratinocytes were kindly donated by Dr. James Rheinwald of Harvard University, Boston, Mass. and Dr. Richard Schlegel of Georgetown University, Washington D.C. respectively. Human cells were cultured in DMEM/Ham's F12 1:1, 10% FCS, P/S and epidermal growth factor 10 ng/ml.
Primary mouse keratinocytes were incubated with MC for 0, 0.5, 1, 4 and 48 hours and were processed as follows.
The assay measures insoluble cross-linked protein envelopes as described (Hough-Monroe et al. Analytical biochem., 199, 25-28, 1991), with modifications as follows. Cornified envelopes were prepared by scraping monolayers into 2% sodium dodecylsulphate (SDS), 20 mM dithiothreitol (DTT) in phosphate buffered saline (PBS). Unattached cells were pelleted from medium and were resuspended in SDS/DTT and pooled with attached cells. Samples were boiled for 10 mins. Cornified envelope samples were examined under the microscope using phase contrast optics or were applied to an RC60 membrane (Schleicher and Schuell, Keene, N.H.) on a 96-well dot-blot apparatus attached to a vacuum. Samples were washed three times with SDS/DTT and the resultant protein spots on RC60 membrane were fixed and stained as described. Sports were excised and eluted with 1% NH3 OH concentrated solution, 66% methanol (200 ul) overnight. Absorbance of eluate was measured on a Titertek plate reader at 600 nm.
Cells were seeded at low density and were treated with MC for 3 days. Cells were then counted and increase in cell number was compared to untreated controls, or cells were processed for cross-linked protein.
Inhibitors were added 30 mins before MC or stsp (FIG. 6). Cross-linked protein was measured by the cornified envelope assay, described in Example 2.

[6] = system: EGF receptor; test: Western blot analysis of in vitro assay with EGF receptor; assay type: biochemical
[7] = system: athymic nude mouse skin; test: Acute topical toxicity on athymic nude mouse skin; assay type: in vivo
Protocol: FIGS. 9A, 9B, 9C, 9D and 9E show color photographs. Topical Application of MC on Athymic Nude Mouse Skin. Histological sections were taken from paraffin-embedded tissue and were stained with hematoxylin and eosin. Panel a is vehicle control; panel b is 100 μM MC; panel c is 1 mM MC; panel d is 10 mM MC; and panel e is 100 mM MC. Magnification is 200x.
FIGS. 13A, 13B and 13C show color photographs of mice. […] Photographs were taken after animal sacrifice upon termination of the experiments.
Acute topical toxicity of MC was assessed by its application to athymic mouse skin and observation for inflammation, ulceration or other signs of toxicity after 5x weekly applications for 2 weeks and by microscopical analysis of paraffin-embedded sections of athymic mouse skin after MC application. Male nu/nu mice, 8 weeks old, were subdivided into 5 treatments groups and MC was administered topically in 10% DMSO in acetone vehicle. Mice were treated with a control vehicle, 100 μM MC, 1 mM MC, 10 mM MC or 100 mM MC. Treatment was 5 times per week for two weeks, after which animals were sacrificed and dorsal skin was fixed in Carnoy's solution at 4° C. for 24 hours followed by ethanol 100%. Histological sections were taken from paraffin-embedded tissue and were stained with hematoxylin and eosin. FIG. 13 illustrates the effect of MC on the skin of nude mice.
Male nu/nu mice, 8 weeks old, were subdivided into treatment groups and MC was administered topically to dorsal skin in 10% DMSO in acetone vehicle (25 μl). Treatment was 5 times per week for two weeks. […] MC itself is yellow-brown, so some discoloration would be expected due to drug deposition and accumulation at this high concentration.

[8] = Hori et al., J. Antibiot., 45, 280-282, 1992; cited from earlier work

COC(=O)C=Cc1cc(O)ccc1O [MC, methyl 2,5-dihydroxycinnamate]
formation of cross-linked cornified envelopes (phase contrast) ([1]; SP-1, 250 μM, 48 hours): formation of cross-linked cornified envelopes
cross-linked protein (envelope production) ([1]; SP-1, 48 h, 0.1-1 mM): induced crosslinked envelope production; also recorded: increased cross-linked protein in a dose-dependent manner
cross-linked protein (envelope production) [2]: induced crosslinked envelope production; also recorded: increased cross-linked protein in a dose-dependent manner
cross-linked protein (envelope production) [3]: induced crosslinked envelope production; also recorded: increased cross-linked protein in a dose-dependent manner
cross-linked protein (envelope production) [4]: induced crosslinked envelope production; also recorded: increased cross-linked protein in a dose-dependent manner
cornification after 48 hours ([5]; 100 μM, 48 hours): effective
cornification after 48 hours ([5]; 1 mM, 48 hours): effective
time within which cornification / cross-linking occurs or commences ([5]; 1 mM, primary mouse keratinocytes): ≤ 4 h
cross-linked protein at 4° C. and 37° C. ([5]; 4° C. and 37° C., 48 hours): took place at 4 °C and 37 °C; also recorded: Induces Cross-linked protein; also recorded: able to induce cross-linked protein effectively at 4° or 37 °C
minimal effective concentration ([5]; Keratinocyte, 72 h, primary mouse keratinocytes, 3 days, read-out: concentration required to produce protein cross-linking): > 50 µM
effect of transglutaminase inhibitors on cross-linking activity ([5]; LTB 2 and HPB 2 at 100 μM, MC 75 or 1000 μM or staurosporine 10 nM, 48 hours): not affected by transglutaminase inhibitors; also recorded: not inhibited by transglutaminase (TGase) inhibitors; also recorded: do not Prevent Protein Cross-linking
cross-linked protein (envelope production) ([5]; primary mouse keratinocytes, 48 h, 0.1-1 mM): induced crosslinked envelope production; also recorded: increased cross-linked protein in a dose-dependent manner
MC-induced mobility retardation of the EGF receptor, effect of DTT ([6]; DTT, Western blot): did inhibit MC-induced mobility retardation of the EGF receptor
tyrosine kinase inhibition in presence of DTT ([6]; effect of DTT on MC tyrosine kinase inhibition, in vitro): did not prevent tyrosine kinase inhibition
microscopy: inflammatory infiltrates ([7]; mouse, in vivo): focal inflammatory infiltrates were visible
microscopy: necrosis ([7]; mouse, in vivo): no obvious necrosis
microscopy: vacuolation of epidermal cells ([7]; mouse, in vivo): some vacuolation of epidermal cells
systemic toxicity or changes in skin at the application site ([7]; mouse, in vivo): No changes were observed
acute toxicity or inflammation by microscopy ([7]; up to 10 mM, topical, normal athymic mouse skin): not acutely toxic or inflammatory
half life in serum [8]: short
